Values quoted from earlier work as cited in patent US20080242648A1, “COMBINATION OF ERa+ LIGANDS AND HISTONE D[…] THE TREATMENT OF CANCER” (Syndax Pharmaceuticals, Inc., a California Corporation, priority 2006, published 2008).

System: breast cancer
Conditions: second line setting, post-menopausal women

**Q.** For “7-alpha-[9-(4,4,5,5,5-penta fluoropentylsulphinyl)nonyl]estra-1,3,5-(10)-triene-3,17-beta-diol [Faslodex]”, which response rate is on record?
**A.** The response rate was 17-20%.

**Q.** What about the time to progression of the same substance?
**A.** The time to progression was 5.4-5.5 month.
